Experiment: xn = mol fraction of the nth substance listed
Settings: 100 kPa

CN1CCCC1=O + CCCCCCCCn1cc[n+](C)c1.[Cl-]
x1 = 1
Settings	viscosity [mPa·s]
288.15 K	1.989
298.15 K	1.679
303.15 K	1.556
308.15 K	1.441
313.15 K	1.323
323.15 K	1.148
328.15 K	1.065
333.15 K	1.029

CN1CCN(C)C1=O + CCCCCCCCn1cc[n+](C)c1.[Cl-]
viscosity [mPa·s]
Settings	288.15 K	293.15 K	298.15 K	303.15 K	308.15 K	313.15 K	318.15 K	323.15 K	328.15 K	333.15 K
x2 = 0	2.368	2.139	1.945	1.76	1.616	1.491	1.381	1.28	1.195	1.117
x2 = 0.105	7.99	6.88	5.98	5.25	4.64	4.14	3.72	3.36	–	2.78
x2 = 0.2056	29.6	24	19.66	–	14	11.99	10.25	8.93	7.84	6.92
x2 = 0.3018	–	67.9	53.2	42.4	34.3	28.2	23.45	19.75	16.69	14.54
x2 = 0.3991	217	–	118.5	90.5	70.8	56.4	45.7	37.5	–	26.3
x2 = 0.4964	–	420	295	–	170.9	–	–	–	63.2	51.6
x2 = 0.6016	1500	990	669	467	335	245	196	149.3	116	91.4
x2 = 0.7007	–	1973	1290	874	608	431	315	251	191	–
x2 = 0.7994	–	–	2473	1632	–	–	551	404	301	229

CN1CCCC1=O + CCCCCC[n+]1ccn(C)c1.[Cl-]
x1 = 1
Settings	viscosity [mPa·s]
288.15 K	1.989
293.15 K	1.853
298.15 K	1.679
303.15 K	1.556
308.15 K	1.441
313.15 K	1.323
318.15 K	1.259
323.15 K	1.148
328.15 K	1.065
333.15 K	1.029

CN1CCN(C)C1=O + CCCCCC[n+]1ccn(C)c1.[Cl-]
viscosity [mPa·s]
Settings	288.15 K	293.15 K	298.15 K	303.15 K	308.15 K	313.15 K	318.15 K	323.15 K	328.15 K	333.15 K
x2 = 0	–	2.139	1.945	1.76	–	1.491	1.381	1.28	–	1.117
x2 = 0.1007	–	5.49	4.82	4.26	3.8	3.41	3.08	–	2.55	2.337
x2 = 0.1999	18.72	15.59	13.12	–	–	7.42	6.47	5.7	5.07	4.54
x2 = 0.2985	49.9	39.2	31.2	25.4	20.72	17.34	14.87	–	11.09	–
x2 = 0.3856	124.2	92.5	71.6	55.9	–	35.7	29.2	24.3	20.29	17.2
x2 = 0.4985	301	214	155.5	116.4	88.9	69.2	54.9	–	37.1	29.9
x2 = 0.6069	707	477	332	241	185	138.5	106.2	82.7	64.8	52.5
x2 = 0.6969	1575	1029	694	478	338	246	–	137.9	106.7	83.8
x2 = 0.7981	–	2308	1473	978	666	468	335	247	184	141.2

CCCCCCCCn1cc[n+](C)c1.[Cl-] + CN1CCCC1=O
viscosity [mPa·s]
Settings	288.15 K	293.15 K	298.15 K	303.15 K	308.15 K	313.15 K	318.15 K	323.15 K	328.15 K	333.15 K
x2 = 0.21	–	2103	1299	878	619	442	–	–	–	137.7
x2 = 0.3221	1176	–	–	384	279	208	156.4	120.6	94.4	76.3
x2 = 0.43	560	390	279	207	154.3	117.6	91.2	72	57.7	46.7
x2 = 0.5321	204	149.8	112.3	86.1	67.1	53.3	–	35.6	29.5	24.9
x2 = 0.6343	86	66.1	51.9	41.4	33.5	27.6	22.98	19	16.2	14.09
x2 = 0.7195	32.3	26.2	21.09	17.68	–	12.7	10.97	9.55	8.38	7.41
x2 = 0.8143	12.78	10.86	9.32	8.08	7.07	6.24	–	–	4.46	4.04
x2 = 0.9085	5.24	4.63	4.13	3.71	–	3.05	2.79	2.57	2.377	2.211

CCCCCC[n+]1ccn(C)c1.[Cl-] + CN1CCCC1=O
viscosity [mPa·s]
Settings	288.15 K	293.15 K	298.15 K	303.15 K	308.15 K	313.15 K	318.15 K	323.15 K	328.15 K	333.15 K
x2 = 0.2211	2552	1609	–	699	–	342	247	186	140.1	109.4
x2 = 0.3181	1037	687	–	329	239	176	132.3	–	79.8	63.8
x2 = 0.4223	406	–	207	–	115.1	87.7	68.5	–	–	36.7
x2 = 0.5271	167.3	123.1	–	71.4	55.9	45.3	36.7	30.2	25.1	21.19
x2 = 0.6327	63.8	49.7	39.4	31.7	26	–	17.7	15.13	13.09	11.35
x2 = 0.718	29.2	23.7	–	16.08	–	–	10.04	8.75	–	6.77
x2 = 0.8139	11.44	9.86	–	7.37	–	5.71	5.08	4.55	4.07	3.68
x2 = 0.9083	4.69	4.16	3.72	3.35	3.04	–	2.55	2.353	2.185	–

Reference: a compilation of properties of binary mixtures (doi:10.1080/00986445.2015.1114477)
